Legend:
[1] = biological target: T1, Glutamate NMDA receptor (Rattus norvegicus) (UniProt P35439+Q00959+Q00960+Q00961+Q62645+Q8VHN2+Q9R1M7); experiment: (§1) Relative activity in depolarization to its corresponding CCG(CCG=1) isomer; type: protein-complex assay
[2] = biological target: T1, Glutamate NMDA receptor (Rattus norvegicus); experiment: Depolarizing activity against NMDA receptor in isolated spinal cord of newborn rat.; type: protein-complex assay
[3] = biological target: Metabotropic glutamate receptor 1 (Rattus norvegicus) (UniProt P23385); experiment: as §1
[4] = biological target: Metabotropic glutamate receptor 1 (Rattus norvegicus) (UniProt P23385); experiment: Depolarizing activity against mGluR-I receptor in isolated spinal cord of newborn rat.; type: tissue-based

Sequence of Metabotropic glutamate receptor 1 (Rattus norvegicus) (P23385 19-1199 limits assumed): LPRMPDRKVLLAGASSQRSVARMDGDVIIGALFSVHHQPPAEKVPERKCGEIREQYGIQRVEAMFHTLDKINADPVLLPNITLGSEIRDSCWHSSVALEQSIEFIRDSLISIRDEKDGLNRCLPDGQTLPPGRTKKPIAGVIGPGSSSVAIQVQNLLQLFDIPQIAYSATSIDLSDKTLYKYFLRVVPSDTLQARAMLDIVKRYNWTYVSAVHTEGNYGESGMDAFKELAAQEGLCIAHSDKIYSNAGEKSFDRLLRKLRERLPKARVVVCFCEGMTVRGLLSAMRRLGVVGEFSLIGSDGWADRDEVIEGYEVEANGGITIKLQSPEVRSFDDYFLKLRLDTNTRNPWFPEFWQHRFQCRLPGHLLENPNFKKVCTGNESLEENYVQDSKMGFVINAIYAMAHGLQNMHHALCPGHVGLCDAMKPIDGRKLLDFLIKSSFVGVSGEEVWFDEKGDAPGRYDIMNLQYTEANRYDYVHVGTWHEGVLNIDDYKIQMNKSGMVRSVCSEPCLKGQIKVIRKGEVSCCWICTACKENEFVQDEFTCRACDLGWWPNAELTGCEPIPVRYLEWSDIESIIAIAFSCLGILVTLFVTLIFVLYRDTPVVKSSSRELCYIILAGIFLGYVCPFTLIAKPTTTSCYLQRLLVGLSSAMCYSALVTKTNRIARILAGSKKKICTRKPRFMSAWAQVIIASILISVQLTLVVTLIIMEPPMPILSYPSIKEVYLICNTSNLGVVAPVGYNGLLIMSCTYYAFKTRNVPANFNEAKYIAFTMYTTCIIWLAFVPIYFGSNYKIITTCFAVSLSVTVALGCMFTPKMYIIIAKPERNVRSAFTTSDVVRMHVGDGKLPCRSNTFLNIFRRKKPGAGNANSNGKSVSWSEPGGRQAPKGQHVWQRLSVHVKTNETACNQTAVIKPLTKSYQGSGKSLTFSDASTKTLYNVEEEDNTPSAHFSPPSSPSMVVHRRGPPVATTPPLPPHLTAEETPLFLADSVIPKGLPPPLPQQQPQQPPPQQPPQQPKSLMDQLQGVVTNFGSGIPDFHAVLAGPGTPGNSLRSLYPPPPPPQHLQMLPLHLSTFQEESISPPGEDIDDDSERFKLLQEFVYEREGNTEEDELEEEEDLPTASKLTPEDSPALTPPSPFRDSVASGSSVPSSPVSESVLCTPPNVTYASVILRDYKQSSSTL

Row | Compound | Ratio of depolarizing activity [1] | Threshold concentration [2] | Ratio of depolarizing activity [3] | Threshold concentration [4]
1 | N[C@H](C(=O)O)[C@@H]1[C@H](C(=O)O)C1(F)F | 2 | 100 µM | – | –
2 | N[C@@H](C(=O)O)[C@H]1[C@H](C(=O)O)C1(F)F | 1.2 | 30 µM | – | –
3 | N[C@@H](C(=O)O)[C@@H]1[C@@H](C(=O)O)C1(F)F | 0.1 | 10 µM | – | –
4 | N[C@H](C(=O)O)[C@H]1[C@H](C(=O)O)C1(F)F | – | 300 µM | 0.5 | 300 µM
5 | N[C@H](C(=O)O)[C@@H]1[C@@H](C(=O)O)C1(F)F | – | – | 3 | 2 µM
6 | N[C@H](C(=O)O)[C@H]1[C@@H](C(=O)O)C1(F)F | 1.5 | 1 µM | – | –
7 | NC(C(=O)O)[C@H]1[C@@H](C(=O)O)C1(F)F (single isomer, unassigned) | < 0.01 | 1000 µM | – | –
8 | NC(C(=O)O)[C@@H]1[C@H](C(=O)O)C1(F)F (single isomer, unassigned) | < 0.1 | 1000 µM | – | –
